What all share (format): cell-based
In one experiment the target is T1, GCGR (Homo sapiens, UniProt P47871).
T1 construct: expressed in transfected cells; host or cells: HEK293 (HEK293-GCGR)
The experiment is described as follows: In vitro cell activity, cAMP production in HEK293 cells expressing GCGR. The note with it: HEK293-GCGR cells, cAMP; read-out: GCGR (EC50). In a few lines: (§1)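 Assay format: cells at 4×10^5 cells/mL, cAMP sensed by d2/cryptate FRET pair, dual-wavelength read at 665 and 620 nm. Potency expressed as EC50 from nonlinear fitting.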
A general note: Changes in cAMP serve as a functional read-out for many G protein-coupled receptors.

The next experiment addresses T2, GIPR (Homo sapiens, UniProt P48546).
T2 construct: expressed in transfected cells; host or cells: HEK293 (HEK293-GIPR)
T2 sequence (P48546 22-466): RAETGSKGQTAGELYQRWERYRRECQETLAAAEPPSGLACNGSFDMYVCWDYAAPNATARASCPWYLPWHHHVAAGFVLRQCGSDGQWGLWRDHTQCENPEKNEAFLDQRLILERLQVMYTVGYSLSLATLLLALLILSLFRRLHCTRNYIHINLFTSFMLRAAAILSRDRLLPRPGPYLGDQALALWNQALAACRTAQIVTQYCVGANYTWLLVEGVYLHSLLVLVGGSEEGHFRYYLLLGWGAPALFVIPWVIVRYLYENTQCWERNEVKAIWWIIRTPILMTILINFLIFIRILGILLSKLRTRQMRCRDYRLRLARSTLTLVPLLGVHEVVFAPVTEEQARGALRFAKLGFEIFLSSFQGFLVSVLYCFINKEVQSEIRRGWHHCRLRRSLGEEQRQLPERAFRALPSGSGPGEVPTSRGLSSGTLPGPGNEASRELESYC
Nature of the experiment: In vitro cell activity, cAMP production in HEK293 cells expressing GIPR. The note with it: HEK293-GIPR cells, cAMP; read-out: GIPR (EC50). The method, boiled down:
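cAMP accumulation is quantified by homogeneous TR-FRET (cAMP-d2 plus anti-cAMP cryptate) in GIPR-expressing HEK293 cells seeded from a 4×10^5 cells/mL suspension and treated with compound. The signal ratio is plotted against concentration and fitted to a four-parameter curve to give EC50.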

In a further experiment the target is T3, GLP-1R (Homo sapiens, UniProt P43220).
T3 construct: expressed in transfected cells; host or cells: HEK293 (HEK293-GLP-1R)
T3 sequence (P43220 24-463, species assumed): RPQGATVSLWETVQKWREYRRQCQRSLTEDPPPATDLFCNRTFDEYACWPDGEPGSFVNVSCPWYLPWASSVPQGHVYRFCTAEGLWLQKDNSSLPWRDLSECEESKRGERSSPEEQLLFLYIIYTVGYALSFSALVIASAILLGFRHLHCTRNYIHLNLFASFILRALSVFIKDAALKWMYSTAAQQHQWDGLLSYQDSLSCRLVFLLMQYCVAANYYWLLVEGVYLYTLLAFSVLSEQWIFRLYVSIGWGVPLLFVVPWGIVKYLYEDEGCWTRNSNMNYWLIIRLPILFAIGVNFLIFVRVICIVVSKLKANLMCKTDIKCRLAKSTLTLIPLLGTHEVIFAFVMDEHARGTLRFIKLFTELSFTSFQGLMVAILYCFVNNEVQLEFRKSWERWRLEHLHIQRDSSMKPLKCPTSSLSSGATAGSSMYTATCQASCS
Nature of the experiment: In vitro cell activity, cAMP production in HEK293 cells expressing GLP-1R. The settings on record: HEK293-GLP-1R cells, cAMP; read-out: GLP-1R (EC50). In a few lines: as §1

We go through six molecules from patent EP4596574A1, “GLP-1/GCG/GIP TRIPLE-RECEPTOR AGONIST AND USE THEREOF” (Sunshine Lake Pharma Co., Ltd., priority 2022, dated 2024).

Usually EC50 stands for the midpoint of the concentration-response curve.

Each structure is given as a SMILES string. Starred links: 1 amine or outer side, 2 acyl side, 3 side chain; linkers in the order of their positions; H or OH if unused. Non-standard residues stand in square brackets, D forms with d. Residues, ends and D or L forms follow the SMILES beside them. Groups on a side chain read outwards from the residue. *: point of attachment. C18 diacid = O=C(O)CCCCCCCCCCCCCCCCC(=O)*; αMePhe(2-F) = C[C@](N)(Cc1ccccc1F)C(=O)O; γGlu = O=C(O)[C@H](CCC(=O)[*:2])N[*:1]; AEEA = NCCOCCOCC(=O)O; Aib = CC(C)(N)C(=O)O

T1 sequence (P47871 26-477, species assumed): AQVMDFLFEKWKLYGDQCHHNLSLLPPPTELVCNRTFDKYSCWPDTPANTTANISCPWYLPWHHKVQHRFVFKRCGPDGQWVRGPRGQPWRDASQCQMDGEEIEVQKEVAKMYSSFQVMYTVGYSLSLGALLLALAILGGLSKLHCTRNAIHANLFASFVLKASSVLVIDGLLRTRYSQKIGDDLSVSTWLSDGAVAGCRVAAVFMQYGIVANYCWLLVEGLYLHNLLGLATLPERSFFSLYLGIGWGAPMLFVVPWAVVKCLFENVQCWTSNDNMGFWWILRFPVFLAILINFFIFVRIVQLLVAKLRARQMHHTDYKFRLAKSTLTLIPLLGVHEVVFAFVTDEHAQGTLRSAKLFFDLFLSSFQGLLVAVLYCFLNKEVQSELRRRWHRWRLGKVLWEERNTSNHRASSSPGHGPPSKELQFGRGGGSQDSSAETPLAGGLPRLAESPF

`CC[C@H](C)[C@H](NC(=O)[C@H](CCCNC(=N)N)NC(=O)[C@H](CC(=O)O)NC(=O)[C@H](CCCCNC(=O)COCCOCCNC(=O)CC[C@H](NC(=O)CCCCCCCCCCCCCCCCC(=O)O)C(=O)O)NC(=O)[C@H](CC(C)C)NC(=O)[C@@H](NC(=O)[C@H](CO)NC(=O)[C@H](Cc1ccc(O)cc1)NC(=O)[C@H](CC(=O)O)NC(=O)[C@H](CO)NC(=O)[C@@H](NC(=O)[C@](C)(Cc1ccccc1F)NC(=O)[C@@H](NC(=O)CNC(=O)[C@H](CCC(N)=O)NC(=O)C(C)(C)NC(=O)[C@@H](N)Cc1ccc(O)cc1)[C@@H](C)O)[C@@H](C)O)[C@@H](C)CC)C(=O)N[C@@H](C)C(=O)N[C@@H](CCC(N)=O)C(=O)N[C@@H](CCCNC(=N)N)C(=O)N[C@@H](C)C(=O)N[C@@H](Cc1ccccc1)C(=O)N[C@H](C(=O)N[C@@H](CCC(=O)O)C(=O)N[C@@H](Cc1ccc(O)cc1)C(=O)N[C@@H](CC(C)C)C(=O)N[C@@H](CC(C)C)C(=O)N[C@@H](CCC(=O)O)C(=O)NCC(=O)NCC(=O)N1CCC[C@H]1C(=O)N[C@@H](CO)C(=O)N[C@@H](CO)C(=O)NCC(=O)N[C@@H](C)C(=O)N1CCC[C@H]1C(=O)N1CCC[C@H]1C(=O)N1CCC[C@H]1C(=O)N[C@@H](CO)C(=O)O)[C@@H](C)CC` [HEC-PT142] (H-Y[Aib]QGT[αMePhe(2-F)]TSDYSILK([AEEA-γGlu-C18 diacid])DRIAQRAFIEYLLEGGPSSGAPPPS-OH): the results for the EC50 on GCGR, on GIPR and on GLP-1R were 0.113 nM, 0.142 nM and 0.16 nM, respectively.
For `CC[C@H](C)[C@H](NC(=O)[C@H](CCCCN)NC(=O)[C@H](CC(=O)O)NC(=O)[C@H](CCCCNC(=O)COCCOCCNC(=O)CC[C@H](NC(=O)CCCCCCCCCCCCCCCCC(=O)O)C(=O)O)NC(=O)[C@H](CC(C)C)NC(=O)[C@@H](NC(=O)[C@H](CO)NC(=O)[C@H](Cc1ccc(O)cc1)NC(=O)[C@H](CC(=O)O)NC(=O)[C@H](CO)NC(=O)[C@@H](NC(=O)[C@](C)(Cc1ccccc1F)NC(=O)[C@@H](NC(=O)CNC(=O)[C@H](CCC(N)=O)NC(=O)C(C)(C)NC(=O)[C@@H](N)Cc1ccc(O)cc1)[C@@H](C)O)[C@@H](C)O)[C@@H](C)CC)C(=O)N[C@@H](C)C(=O)N[C@@H](CCC(N)=O)C(=O)N[C@@H](CCC(N)=O)C(=O)N[C@@H](C)C(=O)N[C@@H](Cc1ccccc1)C(=O)N[C@H](C(=O)N[C@@H](CCC(=O)O)C(=O)N[C@@H](Cc1ccc(O)cc1)C(=O)N[C@@H](CC(C)C)C(=O)N[C@@H](CC(C)C)C(=O)N[C@@H](C)C(=O)NCC(=O)NCC(=O)N1CCC[C@H]1C(=O)N[C@@H](CO)C(=O)N[C@@H](CO)C(=O)NCC(=O)N[C@@H](C)C(=O)N1CCC[C@H]1C(=O)N1CCC[C@H]1C(=O)N1CCC[C@H]1C(=O)N[C@@H](CO)C(N)=O)[C@@H](C)CC` [HEC-PT122] (H-Y[Aib]QGT[αMePhe(2-F)]TSDYSILK([AEEA-γGlu-C18 diacid])DKIAQQAFIEYLLAGGPSSGAPPPS-NH2), in that order: 0.162 nM, 0.0276 nM and 0.0893 nM.
For `CC[C@H](C)[C@H](NC(=O)[C@H](CCCCN)NC(=O)[C@H](CC(=O)O)NC(=O)[C@H](CCCCNC(=O)COCCOCCNC(=O)CC[C@H](NC(=O)CCCCCCCCCCCCCCCCC(=O)O)C(=O)O)NC(=O)[C@H](CC(C)C)NC(=O)[C@@H](NC(=O)[C@H](CO)NC(=O)[C@H](Cc1ccc(O)cc1)NC(=O)[C@H](CC(=O)O)NC(=O)[C@H](CO)NC(=O)[C@@H](NC(=O)[C@](C)(Cc1ccccc1F)NC(=O)[C@@H](NC(=O)CNC(=O)[C@H](CCC(N)=O)NC(=O)C(C)(C)NC(=O)[C@@H](N)Cc1ccc(O)cc1)[C@@H](C)O)[C@@H](C)O)[C@@H](C)CC)C(=O)N[C@@H](C)C(=O)N[C@@H](CCC(N)=O)C(=O)N[C@@H](CCCCN)C(=O)N[C@@H](C)C(=O)N[C@@H](Cc1ccccc1)C(=O)N[C@H](C(=O)N[C@@H](CCC(=O)O)C(=O)N[C@@H](Cc1ccc(O)cc1)C(=O)N[C@@H](CC(C)C)C(=O)N[C@@H](CC(C)C)C(=O)N[C@@H](C)C(=O)NCC(=O)NCC(=O)N1CCC[C@H]1C(=O)N[C@@H](CO)C(=O)N[C@@H](CO)C(=O)NCC(=O)N[C@@H](C)C(=O)N1CCC[C@H]1C(=O)N1CCC[C@H]1C(=O)N1CCC[C@H]1C(=O)N[C@@H](CO)C(N)=O)[C@@H](C)CC` [HEC-PT140] (H-Y[Aib]QGT[αMePhe(2-F)]TSDYSILK([AEEA-γGlu-C18 diacid])DKIAQKAFIEYLLAGGPSSGAPPPS-NH2), in that order: 0.272 nM, 0.0543 nM and 0.152 nM.
Turning to `CC[C@H](C)[C@H](NC(=O)[C@H](Cc1ccccc1)NC(=O)[C@H](C)NC(=O)[C@H](CCCNC(=N)N)NC(=O)[C@H](CCC(N)=O)NC(=O)[C@H](C)NC(=O)[C@H](CCCCNC(=O)COCCOCCNC(=O)CC[C@H](NC(=O)CCCCCCCCCCCCCCCCCCC(=O)O)C(=O)O)NC(=O)[C@H](CCC(=O)O)NC(=O)[C@H](CC(=O)O)NC(=O)[C@H](CC(C)C)NC(=O)[C@H](CC(C)C)NC(=O)[C@@H](NC(=O)[C@H](CO)NC(=O)[C@H](Cc1ccc(O)cc1)NC(=O)[C@H](CC(=O)O)NC(=O)[C@H](CO)NC(=O)[C@@H](NC(=O)[C@](C)(Cc1ccccc1F)NC(=O)[C@@H](NC(=O)CNC(=O)[C@H](Cc1c[nH]cn1)NC(=O)C(C)(C)NC(=O)[C@@H](N)Cc1ccc(O)cc1)[C@@H](C)O)[C@@H](C)O)[C@@H](C)CC)C(=O)N[C@@H](CCC(=O)O)C(=O)N[C@@H](Cc1ccc(O)cc1)C(=O)N[C@@H](CC(C)C)C(=O)N[C@@H](CC(C)C)C(=O)N[C@@H](CCC(=O)O)C(=O)NCC(=O)NCC(=O)N1CCC[C@H]1C(=O)N[C@@H](CO)C(=O)N[C@@H](CO)C(=O)NCC(=O)N[C@@H](C)C(=O)N1CCC[C@H]1C(=O)N1CCC[C@H]1C(=O)N1CCC[C@H]1C(=O)N[C@@H](CO)C(=O)O` [HEC-PT84], the EC50 on GCGR was 0.306 nM; at GIPR, 0.232 nM; on GLP-1R, 0.291 nM.
As to `CC[C@H](C)[C@H](NC(=O)[C@H](Cc1ccccc1)NC(=O)[C@H](C)NC(=O)[C@H](CCCCNC(=O)COCCOCCNC(=O)CC[C@H](NC(=O)CCCCCCCCCCCCCCCCC(=O)O)C(=O)O)NC(=O)[C@H](CCC(N)=O)NC(=O)[C@H](CCCNC(=N)N)NC(=O)[C@@H](NC(=O)[C@H](CCCNC(=N)N)NC(=O)[C@H](CC(=O)O)NC(=O)[C@H](CC(C)C)NC(=O)[C@H](CC(C)C)NC(=O)[C@@H](NC(=O)[C@H](CO)NC(=O)[C@H](Cc1ccc(O)cc1)NC(=O)[C@H](CC(=O)O)NC(=O)[C@H](CO)NC(=O)[C@@H](NC(=O)[C@](C)(Cc1ccccc1F)NC(=O)[C@@H](NC(=O)CNC(=O)[C@H](CCC(N)=O)NC(=O)C(C)(C)NC(=O)[C@@H](N)Cc1ccc(O)cc1)[C@@H](C)O)[C@@H](C)O)[C@@H](C)CC)[C@@H](C)CC)C(=O)N[C@@H](CCC(=O)O)C(=O)N[C@@H](Cc1ccc(O)cc1)C(=O)N[C@@H](CC(C)C)C(=O)N[C@@H](CC(C)C)C(=O)N[C@@H](CCC(=O)O)C(=O)NCC(=O)NCC(=O)N1CCC[C@H]1C(=O)N[C@@H](CO)C(=O)N[C@@H](CO)C(=O)NCC(=O)N[C@@H](C)C(=O)N1CCC[C@H]1C(=O)N1CCC[C@H]1C(=O)N1CCC[C@H]1C(=O)N[C@@H](CO)C(=O)O` [HEC-PT126], the results for the EC50 on GCGR, at GIPR and on GLP-1R were 0.0319 nM, 0.0589 nM and 0.861 nM, respectively.
As to `CC[C@H](C)[C@H](NC(=O)[C@H](Cc1ccccc1)NC(=O)[C@H](C)NC(=O)C(C)(C)NC(=O)[C@H](CCC(N)=O)NC(=O)[C@H](CCCNC(=N)N)NC(=O)[C@@H](NC(=O)[C@H](CCCCN)NC(=O)[C@H](CC(=O)O)NC(=O)[C@H](CCCCNC(=O)COCCOCCNC(=O)CC[C@H](NC(=O)CCCCCCCCCCCCCCCCC(=O)O)C(=O)O)NC(=O)[C@H](CC(C)C)NC(=O)[C@@H](NC(=O)[C@H](CO)NC(=O)[C@H](Cc1ccc(O)cc1)NC(=O)[C@H](CC(=O)O)NC(=O)[C@H](CO)NC(=O)[C@@H](NC(=O)[C@](C)(Cc1ccccc1F)NC(=O)[C@@H](NC(=O)CNC(=O)[C@H](CCC(N)=O)NC(=O)C(C)(C)NC(=O)[C@@H](N)Cc1ccc(O)cc1)[C@@H](C)O)[C@@H](C)O)[C@@H](C)CC)[C@@H](C)CC)C(=O)N[C@@H](CCC(=O)O)C(=O)N[C@@H](Cc1ccc(O)cc1)C(=O)N[C@@H](CC(C)C)C(=O)N[C@@H](CC(C)C)C(=O)N[C@@H](CCC(=O)O)C(=O)NCC(=O)NCC(=O)N1CCC[C@H]1C(=O)N[C@@H](CO)C(=O)N[C@@H](CO)C(=O)NCC(=O)N[C@@H](C)C(=O)N1CCC[C@H]1C(=O)N1CCC[C@H]1C(=O)N1CCC[C@H]1C(=O)N[C@@H](CO)C(N)=O` [HEC-PT144], the EC50 came out at 0.0366 nM at GCGR, 0.0221 nM on GIPR and 0.173 nM at GLP-1R.
